Activity calls are given as the source filed them. The rule behind the calls is not given here.
Tested on: dengue virus type 2
Assay: Antiviral activity against Dengue virus 2 measured at 48 hrs post-infection
Type: functional, organism-based
Details: Dengue virus, 48 h; read-out: EC50
`N/C(=N\O)c1cccc(-c2ccc3c(c2)c2cc(-c4cccc(/C(N)=N/O)c4)ccc2n3S(=O)(=O)c2ccc(Br)c(F)c2)c1` showed an EC50 of 7.8 µM. `N/C(=N\O)c1cccc(-c2ccc3c(c2)c2cc(-c4cccc(/C(N)=N/O)c4)ccc2n3CC(O)COc2ccccn2)c1` (stereo unspecified) showed an EC50 of 33.9 µM. With `N/C(=N\O)c1cccc(-c2ccc3c(c2)c2cc(-c4cccc(/C(N)=N/O)c4)ccc2n3S(=O)(=O)c2cccc3cccnc23)c1` the EC50 was 8.5 µM. For `N/C(=N\O)c1cccc(-c2ccc3c(c2)c2cc(-c4cccc(/C(N)=N/O)c4)ccc2n3S(=O)(=O)c2cccc(Br)c2)c1`, the EC50 was 2.4 µM. In the case of `COc1ccc(S(=O)(=O)n2c3ccc(-c4cccc(/C(N)=N/O)c4)cc3c3cc(-c4cccc(/C(N)=N/O)c4)ccc32)cc1Br`, the EC50 is reported as 2.4 µM. `N/C(=N\O)c1cccc(-c2ccc3c(c2)c2cc(-c4cccc(/C(N)=N/O)c4)ccc2n3S(=O)(=O)c2ccc(Br)cc2)c1` gave an EC50 of 5.4 µM. With `N/C(=N\O)c1cccc(-c2ccc3c(c2)c2cc(-c4cccc(/C(N)=N/O)c4)ccc2n3Cc2cc(F)cc(Br)c2)c1` the EC50 was 1.5 µM. Work on `COc1cccc(Cn2c3ccc(-c4cccc(/C(N)=N/O)c4)cc3c3cc(-c4cccc(/C(N)=N/O)c4)ccc32)c1` yielded an EC50 of 1.8 µM. `N/C(=N\O)c1cccc(-c2ccc3c(c2)c2cc(-c4cccc(/C(N)=N/O)c4)ccc2n3S(=O)(=O)c2ccc(C(F)(F)F)cc2)c1` gave an EC50 of 4.9 µM. With `N/C(=N\O)c1cccc(-c2ccc3c(c2)c2cc(-c4cccc(/C(N)=N/O)c4)ccc2n3CCCCOc2ccc3ccc(=O)[nH]c3c2)c1` the EC50 was 8.9 µM. `COc1ccc(Cn2c3ccc(-c4cccc(/C(N)=N/O)c4)cc3c3cc(-c4cccc(/C(N)=N/O)c4)ccc32)cc1F` gave an EC50 of 6.9 µM. Work on `COc1ccc(S(=O)(=O)n2c3ccc(-c4cccc(/C(N)=N/O)c4)cc3c3cc(-c4cccc(/C(N)=N/O)c4)ccc32)cc1F` yielded an EC50 of 2.7 µM. `N/C(=N\O)c1cccc(-c2ccc3c(c2)c2cc(-c4cccc(/C(N)=N/O)c4)ccc2n3CC(O)CS(=O)(=O)c2cccc(F)c2)c1` (stereo unspecified) showed an EC50 of 8.7 µM. `COc1ccc(S(=O)(=O)n2c3ccc(-c4cccc(/C(N)=N/O)c4)cc3c3cc(-c4cccc(/C(N)=N/O)c4)ccc32)cc1OC` gave an EC50 of 5.7 µM. Work on `N/C(=N\O)c1cccc(-c2ccc3c(c2)c2cc(-c4cccc(/C(N)=N/O)c4)ccc2n3S(=O)(=O)c2ccccc2C(F)(F)F)c1` yielded an EC50 of 5.3 µM. `N/C(=N\O)c1cccc(-c2ccc3c(c2)c2cc(-c4cccc(/C(N)=N/O)c4)ccc2n3S(=O)(=O)c2cccc(F)c2)c1` showed an EC50 of 3.1 µM. Work on `N/C(=N\O)c1cccc(-c2ccc3c(c2)c2cc(-c4cccc(/C(N)=N/O)c4)ccc2n3Cc2ccc3c(c2)OCO3)c1` yielded an EC50 of 5 µM. With `N/C(=N\O)c1cccc(-c2ccc3c(c2)c2cc(-c4cccc(/C(N)=N/O)c4)ccc2n3S(=O)(=O)c2cc(F)cc(Br)c2)c1` the EC50 was 17.3 µM. In the case of `COc1ccc(S(=O)(=O)n2c3ccc(-c4cccc(/C(N)=N/O)c4)cc3c3cc(-c4cccc(/C(N)=N/O)c4)ccc32)cc1C`, the EC50 is reported as 3.1 µM. In the case of `COc1ccc(OC)c(S(=O)(=O)n2c3ccc(-c4cccc(/C(N)=N/O)c4)cc3c3cc(-c4cccc(/C(N)=N/O)c4)ccc32)c1`, the EC50 is reported as 5.1 µM. `N/C(=N\O)c1cccc(-c2ccc3c(c2)c2cc(-c4cccc(/C(N)=N/O)c4)ccc2n3Cc2ccc(F)cc2)c1` gave an EC50 of 8.1 µM. For `N/C(=N\O)c1cccc(-c2ccc3c(c2)c2cc(-c4cccc(/C(N)=N/O)c4)ccc2n3S(=O)(=O)c2ccccc2Cl)c1`, the EC50 was 2.7 µM.

Tested on: Zika virus
Assay: Antiviral activity against Zika virus
Type: functional, organism-based
Details: not given
Work on `COc1cccc(Cn2c3ccc(-c4cccc(/C(N)=N/O)c4)cc3c3cc(-c4cccc(/C(N)=N/O)c4)ccc32)c1` yielded an EC50 of 8.7 µM.

Biological target: Genome polyprotein (dengue virus type 2) (UniProt P29990)
Assay: Inhibition of DENV2 NS2B-NS3 protease up to 200 uM
Details: dose microM <=200
For `COc1cccc(Cn2c3ccc(-c4cccc(/C(N)=N/O)c4)cc3c3cc(-c4cccc(/C(N)=N/O)c4)ccc32)c1`, the inhibition was “inactive”.

Tested on: dengue virus type 2
Assay: Antiviral activity against Dengue virus 2 EDEN2 infected in human Huh-7 cells
Type: functional, organism-based
Details: EDEN2, Huh-7
In the case of `N=C(N)c1cccc(-c2ccc3c(c2)c2cc(-c4cccc(C(=N)N)c4)ccc2n3Cc2cccc(Br)c2)c1`, the EC50 is reported as 16.4 µM.

Tested on: not listed separately
Assay: Cytotoxicity against human Huh-7 cells assessed as reduction in cell viability
Type: cell-based
Details: not given
With `N=C(N)c1cccc(-c2ccc3c(c2)c2cc(-c4cccc(C(=N)N)c4)ccc2n3Cc2cccc(Br)c2)c1` the CC50 was 100 µM.

Tested on: dengue virus type 2
Assay: Antiviral activity against DENV2 D2Y10 virus infected in human PBMC cells in presence of 4G2 antibody
Type: functional, organism-based
Details: not given
For `N=C(N)c1cccc(-c2ccc3c(c2)c2cc(-c4cccc(C(=N)N)c4)ccc2n3Cc2cccc(Br)c2)c1`, the EC50 was 48.1 µM.

Tested on: not listed separately
Assay: Cytotoxicity against human PBMC assessed as reduction in cell viability
Details: not given
In the case of `N=C(N)c1cccc(-c2ccc3c(c2)c2cc(-c4cccc(C(=N)N)c4)ccc2n3Cc2cccc(Br)c2)c1`, the CC50 is reported as > 100 µM.

Tested on: not listed separately
Assay: Cytotoxicity against monkey LLC-MK2 cells assessed as reduction in cell viability by MTT assay
Type: cell-based, Macaca mulatta
Details: rhesus monkey
Work on `O=C1c2c(O)ccc([N+](=O)[O-])c2C(=O)c2c([N+](=O)[O-])ccc(O)c21` yielded a CC50 of 69.4 µM.

Tested on: dengue virus type 2
Assay: Antiviral activity against Dengue virus 2 infected in human A549 cells assessed as reduction in viral titer production measured after 48 hrs by plaque reduction assay
Type: functional, organism-based
Details: A549, 48 h
`O=C1C=C/C(=N/Nc2ccc([N+](=O)[O-])cc2Cl)C=C1C(=O)Nc1cccc(Cl)c1` showed an EC50 of 0.81 µM.

Biological target: Genome polyprotein (dengue virus type 2, UniProt P29990)
Assay: Inhibition of DENV2 NS2B-NS3 protease assessed as inhibition of protease intermolecular processing
Details: not given
With `O=C1c2c(O)ccc([N+](=O)[O-])c2C(=O)c2c([N+](=O)[O-])ccc(O)c21` the IC50 was 432 µM.

From ChEMBL document CHEMBL4842342, “Amidoxime prodrugs convert to potent cell-active multimodal inhibitors of the dengue virus protease” (Eur J Med Chem, 2021)
